This note sets out measurements from US6696471B2, “Aminopyrrole compounds” (Syntex (U.S.A.) LLC, priority 2001, dated 2004).

The IC50 is the point on the concentration scale where inhibition reaches its midpoint.

T1 sequence (Q16539 whole entry): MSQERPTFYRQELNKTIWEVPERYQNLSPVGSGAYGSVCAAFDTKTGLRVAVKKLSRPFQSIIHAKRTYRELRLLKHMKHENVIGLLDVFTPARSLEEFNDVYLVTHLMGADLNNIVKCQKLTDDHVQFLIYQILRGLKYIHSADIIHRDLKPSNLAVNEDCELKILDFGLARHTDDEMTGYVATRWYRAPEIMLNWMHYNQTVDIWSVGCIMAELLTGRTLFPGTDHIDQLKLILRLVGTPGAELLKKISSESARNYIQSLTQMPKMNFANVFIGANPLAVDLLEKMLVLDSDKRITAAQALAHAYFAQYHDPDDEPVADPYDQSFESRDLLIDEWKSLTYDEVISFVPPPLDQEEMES

The test concerns the target T1, p38 MAP kinase (Homo sapiens, UniProt Q16539).
T1 construct: made in house; host or cells: E. coli (co-expressed with SEK-1 and MEKK)
Kind of test: Inhibition of p-38 (MAP) kinase in vitro assay (transfer of γ-33P from ATP to Myelin Basic Protein). Particulars: phosphorylated recombinant p38 MAP kinase, MBP substrate, γ-33P-ATP, 30° C.; read-out: p-38 inhibitory activity, IC50. In kind it is biochemical. As for the experimental part:
Inhibition Of p-38 (MAP) Kinase . . . In Vitro Assay
The p-38 MAP kinase inhibitory activity of compounds of this invention in vitro was determined by measuring the transfer of the γ-phosphate from γ-^33P-ATP by p-38 kinase to Myelin Basic Protein (MBP), using the a minor modification of the method described in Ahn, N. G.; et al. J. Biol. Chem. Vol. 266(7), 4220-4227, (1991).
The phosphorylated form of the recombinant p38 MAP kinase was expressed with SEK-1 and MEKK in E. Coli and then purified by affinity chromatography using a Nickel column.
The phosphorylated p38 MAP kinase was diluted in kinase buffer (20 mM 3-(N-morpholino)propanesulfonic acid, pH 7.2, 25 mM β-glycerol phosphate, 5 mM ethylene glycol-bis (beta-aminoethyl ether)-N,N,N′,N′-tetraacetic acid, 1 mM sodium vanadate, 1 mM dithiothreitol, 40 mM magnesium chloride). Test compound dissolved in DMSO or only DMSO (control) was added and the samples were incubated for 10 min at 30° C. The kinase reaction was initiated by the addition of a substrate cocktail containing MBP and γ-^33P-ATP. After incubating for an additional 20 min at 30° C., the reaction was terminated by adding 0.75% phosphoric acid. The phosphorylated MBP was then separated from the residual γ-^33P-ATP using a phosphocellulose membrane (Millipore, Bedford, Mass.) and quantitated using a scintillation counter (Packard, Meriden, Conn.).
Compounds of the invention were active in this assay. The p-38 inhibitory activities (expressed as IC50, the concentration causing 50% inhibition of the p-38 enzyme being assayed) of some compounds of the invention are: […]
Take `COc1cccc(C(=O)c2cc(-c3cccnc3)n(-c3ccc(F)cc3)c2N)c1` [Cpd 2]: the IC50 is 169 nM.

On to `Nc1c(C(=O)c2ccccc2)cc(-c2cccnc2)n1-c1ccc(F)cc1` [Cpd 1], for which the half-maximal inhibitory concentration (IC50) was 164 nM.

Consider `Nc1c(C(=O)c2cccc(O)c2)cc(-c2cccnc2)n1-c1ccc(F)cc1` [Cpd 3], for which the IC50 turned out to be 468 nM.

`Nc1c(C(=O)c2cccc(OC[C@H](O)CO)c2)cc(-c2cccnc2)n1-c1ccc(F)cc1` [Cpd 4]: the IC50 came out at 120 nM.
